Data set [1] has as its target T1, Renilla luciferase (Renilla reniformis, UniProt P27652).
T1 sequence (P27652 1-311): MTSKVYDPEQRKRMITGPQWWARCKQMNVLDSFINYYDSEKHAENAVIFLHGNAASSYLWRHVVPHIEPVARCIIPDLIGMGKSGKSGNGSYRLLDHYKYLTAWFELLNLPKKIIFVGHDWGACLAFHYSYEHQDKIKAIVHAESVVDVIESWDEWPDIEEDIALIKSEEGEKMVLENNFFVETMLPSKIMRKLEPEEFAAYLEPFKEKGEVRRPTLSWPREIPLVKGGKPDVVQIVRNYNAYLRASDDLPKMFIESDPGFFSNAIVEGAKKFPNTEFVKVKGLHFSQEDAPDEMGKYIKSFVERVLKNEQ
Particulars: cited from earlier work.

The format of data set [2] is physicochemical. The text has this: Coelenterazine is not terribly soluble in non-irritant vehicles. Coelenterazine is soluble to at least to a concentration of 200 micrograms/mL in a solution of 2% (w/v) PEG 400 containing about 0.8% (w/v) NaCl. Although this solution is slightly hypertonic, it is not an irritant for vehicle purposes.
The test system of data set [3] is mice. Nature of the data set: Repeated i.p. administration, gross signs of toxicity in behavior. In kind it is in vivo. Particulars: 1 mg/kg i.p., daily administration for three days. The method, then:
[…] Mice are examined over the course of the study for any gross signs of toxicity as evidenced in their behavior. At the end of the one-week period, blood is collected by cardiac puncture immediately prior to sacrifice. Animals are sacrificed and ten different tissue samples are removed post mortem from each animal. Isolated tissues are fixed, stained, blocked and sectioned. The pathology of the tissue samples are analyzed and the toxicology data are compiled.

The subject of data set [4] is HeLa cells. Put plainly: Functional expression of Renilla mulleri GFP in mammalian cells. In kind it is cell-based. Particulars: 30 micrograms pcDNA-Renilla mulleri GFP DNA, 37° C., 8 hours, CMV promoter. The text has this: HeLa cells were transfected with the plasmid pcDNA3.1(+) containing Renilla mulleri GFP under the control of a CMV promoter (construct No. B(1) as described above). […]
The fluorescence was localized to pairs of cells that were undergoing, or apparently had recently undergone, a single round of cell-division. […] This is in contrast to the Aequorea GFP, which folds inefficiently into a functional form under the physiological conditions.
Filters (470/40 excitation filter, 495 excitation dichroic filter and 525/50 emission filter) used in visualization of R. mulleri GFP fluorescence in HeLa cells were the Endo GFP filter set sold by Chroma.

The mark [5] stands for this setting: Renilla luciferase, in the presence of Renilla GFP.
The mark [6] stands for this setting: Renilla luciferase, without GFP.

Where two headings read alike, the source gives them in different places.

`O=C(Cc1ccc(O)cc1)NC1N=CC(c2ccccc2)=NC1Cc1ccccc1` (stereo not drawn) [coelenterazine of formula (V)]: the bioluminescence quantum yield in data set [1] (setting [5]) is on record as 2.3%; in data set [1] (setting [6]) it was “about 0.012%”. In addition, the “peak of emitted light” value in data set [1] (luciferase, upon addition of GFP) is listed as 509 nm.

In turn, coelenterazine registered a solubility in data set [2] of at least 200 micrograms/mL. Moreover, the gross behavior changes result in data set [3] is recorded as “no gross behavior changes”. For the same molecule, the bioluminescence quantum yield in data set [1] (setting [5]) is 13%; in data set [1] (setting [6]) it was 6.9%. In addition, the “increase in the amount of light emitted upon addition of GFP” value in data set [1] (Renilla luciferase, with versus without GFP) is “nearly two-fold”.

B1: Renilla mulleri GFP: green fluorescent protein of Renilla mulleri, 238 amino acids, SEQ ID No. 16 (protein, listed as Renilla mulleri)
chain: MSKQILKNTCLQEVMSYKVNLEGIVNNHVFTMEGCGKGNILFGNQLVQIRVTKGAPLPFAFDIVSPAFQYGNRTFTKYPNDISDYFIQSFPAGFMYERTLRYEDGGLVEIRSDINLIEDKFVYRVEYKGSNFPDDGPVMQKTILGIEPSFEAMYMNNGVLVGEVILVYKLNSGKYYSCHMKTLMKSKGVVKEFPSYHFIQHRLEKTYVEDGGFVEQHETAIAQMTSIGKPLGSLHEWV
modifications: Renilla mulleri Green Fluorescent Protein (GFP)
As to B1, the “fluorescence of transfected cells” value in data set [4] is reported as “highly fluorescent”.

(Values after US6436682B1, “Luciferases, fluorescent proteins, nucleic acids encoding the luciferases and fluorescent proteins and the use thereof in diagnostics, high throughput screening and novelty items” (Prolume, Ltd., priority 1998, dated 2002).)
